From patent US8993523B2, “Dimeric IAP inhibitors” (Novartis AG, priority 2010, dated 2015)

How the values were obtained:
Panc3.27 tumor cells = assay: Cellular assay: Panc3.27 tumor cell proliferation (Cell Titer Glo); format: cell-based; conditions: Panc3.27 cells, 72 hour treatment, read-out: PANC proliferation IC50
Description: Cellular Assay—Treatment of Panc3.27 Tumor Cells with Dimeric IAP Antagonists
On day one adherent Panc3.27 cells are plated into two 96-well, clear, flat bottom plates. All wells in row A contain 90 uL of media. All wells in rows B-G contain a total volume of 90 uL per well and 4000 cells per well for Panc3.27 cell lines. Plates are then incubated overnight for 18 hours at 37° C., 5% CO2.
On day two cells are treated with the compounds of formula M-L-M′. Treatments are done in triplicate. The compounds are first serially diluted in DMSO and then added to media giving a final concentration of 0.2% DMSO when added to cells. Cells are treated with 10 uL of serially diluted compounds of formula M-L-M′ at a final concentration of 1000 nM, 200 nM, 40 nM, 8 nM, 1.6 nM, 0.32 nM, 0.06 nM, 0.013 nM, 0.0026 nM, and one untreated well. Plate two is used as a time zero plate.
To measure cell viability 50 uL of Cell Titer Glo (CTG) solution is added to row A, media only and B, cells and media. CTG is purchased from Promega Corporation catalog number G7573. The solution is prepared according to manufacturer's instructions. CTG measures the amount of ATP released from viable cells that is proportional to the number of cells in each well. After incubating for ten minutes with CTG plates are measured on a luminescent reader at 700 nm wavelength. Read time is approximately one second per well for a 96-well plate.
On day five 50 uL of CTG is added to plate one, rows A-G, incubated for 10 minutes at room temperature and read on a luminescent reader. Raw data is adjusted to account for the time zero plate as well as background noise. Triplicate values are averaged and percent control growth is calculated. Percent control growth is calculated using the following logical test: If well read data point (a) is greater than time zero data point (t=0), then 100*[(a)−(t=0)]/[(72 hour total growth)−(t=0)], OR 100*[(a)−(t=0)]/[(t=0)]. Data is represented by line graph with the concentration of compound on the x axis and percent control growth on the y axis.

cIAP1-BIR3 = target: T1, cIAP1-BIR3 (Homo sapiens, UniProt Q13490); assay: Biacore SPR solution inhibition (competition with smac7mer peptide) binding assay, cIAP1-BIR3; conditions: 6 nM cIAP1-BIR3, competition with immobilised smac7mer peptide, 25° C.; read-out: CIAP-BIR3 Binding Biacore (Competitive) EC50
T1 construct: with either 100 nM XIAP-BIR3 or 6 nM cIAP1-BIR3
T1 sequence (Q13490 260-352 limits assumed): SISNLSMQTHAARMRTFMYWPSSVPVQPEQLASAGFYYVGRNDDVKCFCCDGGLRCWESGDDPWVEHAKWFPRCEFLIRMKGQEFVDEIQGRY
Text: (§1) The present method includes utility of a Surface plasmon resonance (SPR)-based biosensor (Biacore™ GE Healthcare, Uppsala, Sweden) to examine competition between the compounds of the present invention and smac7mer peptide for XIAP-BIR3 and cIAP1-BIR3 binding groove occupancy.
(§2) Biacore™ utilizes the phenomenon of surface plasmon resonance (SPR) to detect and measure binding interactions. In a typical Biacore experiment, one of the interacting molecules is immobilized on a flexible dextran matrix while the interacting partner is flowed over the derivatized surface. A binding interaction results in an increase in mass on the sensor surface and a corresponding direct change in the refractive index of the medium in the vicinity of the sensor surface. Changes in refractive index or signal are recorded in resonance units (R.U.) Signal changes due to association and dissociation of complexes are monitored in a non-invasive manner, continuously and in real-time, the results of which are reported in the form of a sensorgram.
(§3) Solution Inhibition Assay Format:
(§4) Biacore™ T100 (GE Healthcare, Uppsala, Sweden) was used to conduct all experiments reported herein. Sensor surface preparation and interaction analyses were performed at 25° C. Buffer and Biacore reagents were purchased from GE Healthcare. Running buffer containing 10 mM Hepes, pH7.4, 150 mM sodium chloride, 1.25 mM Dithiothreitol, 2% Dimethyl sulfoxide and 0.05% polysorbate 20 was utilized throughout all experiments.
(§5) Biotinylated smac7mer peptide was diluted to 10 nM in running buffer and captured onto a sensor surface pre-derivatized with streptavidin (sensor chip SA) towards peptide surface densities in the range 40-100 R.U. Peptide captured surfaces were blocked with 500 μM PEO2-Biotin (Thermo Scientific).
(§6) Interaction analyses were performed by first equilibrating each compound within a six point seven fold compound dilution series in the range 1 μM to 0.06 nM with either 100 nM XIAP-BIR3 or 6 nM cIAP1-BIR3 for at least one hour during instrument start-up procedures. Protein compound mixtures were then injected over reference and smac7mer peptide surfaces in series for 60 seconds at a flow-rate of 60 μL/min. Surface regeneration was performed at the end of each analysis cycle by a 30 second injection of 10 mM Glycine, pH 2.5, 1M Sodium Chloride, 0.05% polysorbate 20. Additionally, control compound samples and control XIAP-BIR3 or cIAP1-BIR3 samples were prepared and run at regular intervals to monitor surface and assay performance.
(§7) Data analyses were carried out using Biacore™ T100 evaluation software v2.0 to validate assay quality. Binding level report points were plotted versus logarithmic compound concentration values and analyzed in Graphpad prism 5 via non-linear regression using a one-site competition model. EC50 values were generated and used as a measure of inhibitor potency.

XIAP-BIR3 = target: T2, XIAP-BIR3 (Homo sapiens, UniProt P98170); assay: Biacore SPR solution inhibition (competition with smac7mer peptide) binding assay, XIAP-BIR3; conditions: 100 nM XIAP-BIR3, competition with immobilised smac7mer peptide, 25° C.; read-out: XIAP-BIR3 Binding Biacore (Competitive) EC50
T2 construct: with either 100 nM XIAP-BIR3 or 6 nM cIAP1-BIR3
T2 sequence (P98170 241-356 limits assumed): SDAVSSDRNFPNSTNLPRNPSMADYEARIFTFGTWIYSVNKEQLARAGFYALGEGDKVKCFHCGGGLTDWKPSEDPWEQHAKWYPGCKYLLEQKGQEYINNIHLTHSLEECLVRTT
Text: as §1, §2, §3, §4, §5, §6, §7

Row | SMILES | IC50 (Panc3.27 tumor cells) [nM] | EC50 (cIAP1-BIR3) [nM] | EC50 (XIAP-BIR3) [nM]
1 | CN[C@@H](C)C(=O)N[C@H](C(=O)N1CCC[C@H]1c1cncc(-n2ccc3c(C(=O)NCc4ccc(CNC(=O)c5cccc6c5ccn6-c5cncc([C@@H]6CCCN6C(=O)[C@@H](NC(=O)[C@H](C)NC)C(C)C)c5)cc4)cccc32)c1)C(C)C [Example 1B, (S,S,S)—N,N′-(1,4-phenylenebis(methylene))bis(1-(5-((S)-1-((S)-3-methyl-2-((S)-2-(methylamino)propanamido)butanoyl)pyrrolidin-2-yl)pyridin-3-yl)-1H-indole-4-carboxamide)] | < 0.0026 | 1.22 to 1.23 | 56.8 to 57
2 | CN[C@@H](C)C(=O)N[C@H](C(=O)N1CCC[C@H]1c1cncc(-n2ccc3c(C(=O)NCCCNC(=O)c4cccc5c4ccn5-c4cncc([C@@H]5CCCN5C(=O)[C@@H](NC(=O)[C@H](C)NC)C(C)C)c4)cccc32)c1)C(C)C [Example 1C, (S,S,S)—N,N′-(propane-1,3-diyl)bis(1-(5-((S)-1-((S)-3-methyl-2-((S)-2-(methylamino)propanamido)butanol)pyrrolidin-2-yl)pyridin-3-yl)-1H-indole-4-carboxamide)] | 0.0026 to 0.14 | 1.66 to 1.71 | 70.7 to 71.3
3 | CN[C@@H](C)C(=O)N[C@H](C(=O)N1CCC[C@H]1c1cncc(-n2ccc3c(C(=O)N[C@H]4CCCC[C@@H]4NC(=O)c4cccc5c4ccn5-c4cncc([C@@H]5CCCN5C(=O)[C@@H](NC(=O)[C@H](C)NC)C(C)C)c4)cccc32)c1)C(C)C [Example 1D, (S,S,S)—N,N′-((1S,2S)-cyclohexane-1,2-diyl)bis(1-(5-((S)-1-((S)-3-methyl-2-((S)-2-(methylamino)propanamido)butanoyl)pyrrolidin-2-yl)pyridin-3-yl)-1H-indole-4-carboxamide)] | 2.61 to 2.75 | 1.2 to 1.22 | 76 to 76.7
4 | CN[C@@H](C)C(=O)N[C@H](C(=O)N1CCC[C@H]1c1cncc(-n2cc(C(=O)NCCCOCCOCCOCCOCCOCCCNC(=O)c3cn(-c4cncc([C@@H]5CCCN5C(=O)[C@@H](NC(=O)[C@H](C)NC)C(C)C)c4)c4ccccc34)c3ccccc32)c1)C(C)C [Example 2B, (S,S,S)—N,N′-(4,7,10,13,16-pentaoxanonadecane-1,19-diyl)bis(1-(5-((S)-1-((S)-3-methyl-2-((S)-2-(methylamino)propanamido)butanoyl)pyrrolidin-2-yl)pyridin-3-yl)-1H-indole-3-carboxamide)] | 0.02 to 0.21 | 0.51 to 1.04 | 51.2 to 59.4
5 | CN[C@@H](C)C(=O)N[C@H](C(=O)N1CCC[C@H]1c1cncc(-n2cc(C(=O)NCCCOCCOCCOCCCNC(=O)c3cn(-c4cncc([C@@H]5CCCN5C(=O)[C@@H](NC(=O)[C@H](C)NC)C(C)C)c4)c4ccccc34)c3ccccc32)c1)C(C)C [Example 2C, (S,S,S)—N,N′-(3,3′-(2,2′-oxybis(ethane-2,1-diyl)bis(oxy))bis(propane-3,1-diyl))bis(1-(5-((S)-1-((S)-3-methyl-2-((S)-2-(methylamino)propanamido)-butanoyl)pyrrolidin-2-yl)pyridin-3-yl)-1H-indole-3-carboxamide)] | 0.1 to 0.27 | 0.97 to 0.98 | 42 to 79.9
6 | CN[C@@H](C)C(=O)N[C@H](C(=O)N1CCC[C@H]1c1cncc(-n2cc(C(=O)NCCCOCCOCCCNC(=O)c3cn(-c4cncc([C@@H]5CCCN5C(=O)[C@@H](NC(=O)[C@H](C)NC)C(C)C)c4)c4ccccc34)c3ccccc32)c1)C(C)C [Example 2E, (S,S,S)—N,N′-(3,3′-(ethane-1,2-diylbis(oxy))bis(propane-3,1-diyl))bis(1-(5-((S)-1-((S)-3-methyl-2-((S)-2-(methylamino)propanamido)butanoyl)pyrrolidin-2-yl)pyridin-3-yl)-1H-indole-3-carboxamide)] | 0.26 to 0.44 | 0.52 to 1.83 | 47 to 54
7 | CN[C@@H](C)C(=O)N[C@H](C(=O)N1CCC[C@H]1c1cncc(-n2cc(C(=O)NCCNC(=O)c3cn(-c4cncc([C@@H]5CCCN5C(=O)[C@@H](NC(=O)[C@H](C)NC)C(C)C)c4)c4ccccc34)c3ccccc32)c1)C(C)C [Example 2F, (S,S,S)—N,N′-(ethane-1,2-diyl)bis(1-(5-((S)-1-((S)-3-methyl-2-((S)-2-(methylamino)propanamido)butanoyl)pyrrolidin-2-yl)pyridin-3-yl)-1H-indole-3-carboxamide)] | 0.08 to 0.28 | 0.21 to 0.86 | 23.5 to 55.2
8 | CN[C@@H](C)C(=O)N[C@H](C(=O)N1CCC[C@H]1c1cncc(-n2cc(C(=O)NCc3ccc(-c4ccc(CNC(=O)c5cn(-c6cncc([C@@H]7CCCN7C(=O)[C@@H](NC(=O)[C@H](C)NC)C(C)C)c6)c6ccccc56)cc4)cc3)c3ccccc32)c1)C(C)C [Example 2G, (S,S,S)—N,N′-(biphenyl-4,4′-diylbis(methylene))bis(1-(5-((S)-1-((S)-3-methyl-2-((S)-2-(methylamino)propanamido)butanoyl)pyrrolidin-2-yl)pyridin-3-yl)-1H-indole-3-carboxamide)] | < 0.0026 | 2.24 to 2.27 | 47.9 to 51.6
9 | CN[C@@H](C)C(=O)N[C@H](C(=O)N1CCC[C@H]1c1cncc(-n2cc(C(=O)NCCCCCCCCCCCNC(=O)c3cn(-c4cncc([C@@H]5CCCN5C(=O)[C@@H](NC(=O)[C@H](C)NC)C(C)C)c4)c4ccccc34)c3ccccc32)c1)C(C)C [Example 2H, (S,S,S)—N,N′-(undecane-1,11-diyl)bis(1-(5-((S)-1-((S)-3-methyl-2-((S)-2-(methylamino)propanamido)butanoyl)pyrrolidin-2-yl)pyridin-3-yl)-1H-indole-3-carboxamide)] | < 0.0026 | 1 to 1.02 | 60.3 to 60.8
10 | CN[C@@H](C)C(=O)N[C@H](C(=O)N1CCC[C@H]1c1cncc(-n2cc(C(=O)NCCCOCCCNC(=O)c3cn(-c4cncc([C@@H]5CCCN5C(=O)[C@@H](NC(=O)[C@H](C)NC)C(C)C)c4)c4ccccc34)c3ccccc32)c1)C(C)C [Example 2I] | 0.18 to 1.21 | 0.5 to 0.51 | 19.7 to 20.8
11 | CN[C@@H](C)C(=O)N[C@H](C(=O)N1CCC[C@H]1c1cncc(-n2cc(C(=O)NCCCCNC(=O)c3cn(-c4cncc([C@@H]5CCCN5C(=O)[C@@H](NC(=O)[C@H](C)NC)C(C)C)c4)c4ccccc34)c3ccccc32)c1)C(C)C [Example 2J, (S,S,S)—N,N′-(butane-1,4-diyl)bis(1-(5-((S)-1-((S)-3-methyl-2-((S)-2-(methylamino)propanamido)butanol)pyrrolidin-2-yl)pyridin-3-yl)-1H-indole-3-carboxamide)] | 0.18 to 1.21 | 1.13 to 1.15 | 19.3 to 19.5
